{"source": "patent US7033582B2", "about": "(Teva Pharmaceutical Industries, Ltd., priority 2000, dated 2006)", "key": {"[1]": {"test_system": "EAE", "settings": "in vivo; cited from earlier work"}, "[2]": {"test_system": "MMP-9", "experiment": "MMP enzyme activity in gelatin zymography, test agent in wash and reaction buffer", "format": "biochemical, Baby Hamster Kidney (BHK) cells and human T lymphocytes", "settings": "agent in incubation buffers during zymogram development; MMP-9 from BHK cells or T lymphocytes", "from_the_text": "The analysis of cell conditioned medium in zymography is a reflection of the amount of MMPs that was produced by the particular culture. […] An inhibitor of MMP activity prevents gelatin degradation by gelatinases and the resultant size of the band of gelatinases would be smaller as compared to that obtained in the absence of inhibitors."}, "[3]": {"test_system": "CXCR3 and CXCR4 on U937 cells", "settings": "25 μg/ml, 1 or 3 days", "from_the_text": "Chemokine and chemokine receptor expression are currently recognized to be important mechanisms that regulate the influx of leukocytes into the CNS. Notable is the up-regulation of the chemokine IP-10 and its receptor CXCR3 in the lesions of multiple sclerosis patients (74)."}, "[4]": {"test_system": "T lymphocytes", "settings": "for total number of cells after 72 h: control 24±2", "experimental": "(§1) Heparinized blood was collected from normal volunteers, and subjected to Ficoll-Hypaque (Pharmacia Biotech, Mississauga, Ontario) centrifugation to obtain peripheral blood mononuclear cells (PEMNCs) as described previously (15). After two washes, cells were suspended at a density of 1–2 million/ml in horizontal T-25 flasks (Nunc, Becton Dickinson, Mississauga, Ontario) in the serum free medium, AIM-V (GIBCO/BRL), to which 1 ng/ml of an anti-CD3 antibody (OKT3, compliments of Jack Antel, Montreal, Canada) was added. Three hours after the anti-CD3 addition, the T-25 flasks were stood upright from their horizontal position in order to […] monocytes that had adhered. Floating cells, which were mostly lymphocytes, were left for a period of 72 hours at 37° C. […] Henceforth, given that the majority of cells in the MNC population are T lymphocytes, these will be referred to as T lymphocytes.\n(§2) Cells were left for 69 h at 37° C., then collected, counted and resuspended in fresh AIM-V at density of 500,000 cells per ml. […] Thereafter, 500 μl (250,000 cells) of the suspension was taken for migration assays described below. Alternatively, 100 μl (50,000 cells) of cell suspension was added to each individual well of a 96-well plate already containing microglia or U937 monocytoid cells (see below)."}, "[5]": {"test_system": "MMP-9 production by T lymphocytes", "experiment": "MMP-9 production by anti-CD3 activated T lymphocytes (zymography of conditioned medium)", "format": "cell-based, human", "settings": "25 μg/ml, for 1, 2 or 3 d", "experimental": "as §1, §2"}, "[6]": {"test_system": "T lymphocytes", "experiment": "Migration assay across fibronectin-coated Boyden chamber", "format": "cell-based, human", "experimental": "as §2\nTo address the migration capacity of T lymphocytes, 2×10^5 T lymphocytes in 500 μl of 2.5% fetal calf serum (FCS) containing AIM-V were seeded into the top compartment of a Boyden chamber (Collaborative Biomedical Products, Bedford, Md.). This chamber consists of two compartments separated by a polycarbonate membrane filter (9 mm in diameter, with 3 μm pores) precoated on its upper surface with fibronectin. Fibronectin was employed to simulate the basal lamina.\nThe bottom compartment of the migration chamber contained 10% FCS-supplemented AIM-V; the higher concentration of FCS in the bottom chamber served as a directional gradient (77). After 5 h at 37° C., the content of the lower chamber was collected, and the number of migrated T lymphocytes was counted with the Coulter Counter Z1."}, "[7]": {"test_system": "T-cell responses to MBP", "settings": "dose-dependent; cited from earlier work"}, "[8]": {"test_system": "MHC class II molecules", "settings": "irrespective of MHC restriction, dose-dependent; cited from earlier work"}, "[9]": {"test_system": "MMP-9 production by monocytes", "settings": "after 1 day of treatment", "procedure": "To produce monocyte-enriched cultures, 2×10^5 PBMC were suspended in 100 μl of AIM-V medium and placed into each well of a 96-well plate. One hour after, floating cells were removed to leave behind adherent monocytes. Fresh 100 μl of AIM-V was added per well and cultures were kept at 37° C.\nSupernatant was collected, mixed in a 3.1 ratio (v/v) with 4× gel-loading SDS buffer, and used in zymographic assays. Similarly, for monocytes in wells of 96-well plates, conditioned medium was collected, microfuged, and mixed with 4× gel-loading SDS buffer.\nZymography is essentially SDS-PAGE except that gelatin is also added to the gel (77, 82). After proteins were resolved based on molecular weight in SDS-PAGE, the gel was washed in a Triton X-100 buffer in order to remove SDS which thus allows protein renaturation. In a calcium-containing “reaction buffer” (77), gelatinases (MMP-2 and -9) degraded gelatin in their immediate vicinity (other members of MMPs would also be detected if present in high amounts). Following staining in Coommasie blue, which binds all proteins, and destaining , areas containing gelatinases appeared as clear bands against a dark background, since the gelatin in its immediate vicinity has been degraded. The size of the MMP bands was a reflection of the amount of MMP that was produced by cells, and this was documented by NIH image analysis software."}, "[10]": {"test_system": "T lymphocyte - U937 co-culture", "settings": "pretreatment of the PMA/IFNγ-treated U937 cells instead of T lymphocytes", "experimental": "as §2\nA human promonocytoid cell line, U937, was also employed. Members of this cell line become microglia-like, as assessed by morphology and expression of cell surface molecules, when treated sequentially with 50 ng/ml of a protein kinase C activator, phorbol-12-myristate-13-acetate (PMA) (time 0–48) and 100 U/ml interferon-γ (IFNγ) (from 48–72 h).\nCells were used 1–3 days after the IFNγ treatment. As with microglia, 50,000 T lymphocytes in AIM-V was added to individual wells of a 96-well plate already containing 25,000 PMA/IFNγ-treated U937 cells, and conditioned medium was collected after 24 h of co-cultures.\n(§3) Cytokine protein levels in the conditioned medium of microglia-T lymphocyte co-cultures were measured using enzyme-linked immunoabsorbent assay (ELISA) kits bought from BioSource International (Montreal, Canada)."}, "[11]": {"test_system": "T lymphocyte - adult human microglia co-culture", "settings": "added at the time of co-culture instead of pretreatment", "experimental": "as §2\nAdult human microglia were isolated from the resected brain tissue of patients undergoing surgical resection to treat intractable epilepsy. […] Cells were used for interactions with T lymphocytes in a manner identical to that described for their fetal counter parts.\nas §3"}, "[12]": {"test_system": "experimental GVHD", "settings": "higher doses and/or more frequent administration; mice; cited from earlier work"}, "[13]": {"test_system": "lymphocytes from relapsing-remitting multiple sclerosis patients", "settings": "patients on Copolymer 1 compared to untreated multiple sclerosis patients; cited from earlier work"}}, "note": "“Also recorded” adds a separate entry of the source. Read-outs that look alike come from different tables or passages of the source.", "data": [{"molecule": "C=CC[C@H](C(=O)NO)[C@@H](CC(C)C)C(=O)N[C@@H](Cc1ccccc1)C(=O)NC", "note": "[BB-1101]", "values": [{"measurement": "incidence and severity of EAE", "setting": "[1]", "value": "alleviate"}]}, {"molecule": "CNC(=O)[C@H](Cc1c[nH]c2ccccc12)NC(=O)[C@@H](CC(=O)NO)CC(C)C", "note": "[GM6001]", "values": [{"measurement": "incidence and severity of EAE", "setting": "[1]", "value": "alleviate"}]}, {"molecule": "CNC(=O)[C@@H](NC(=O)[C@@H](CC(=O)NO)CC(C)C)C(C)(C)C", "note": "[Ro31-9790]", "values": [{"measurement": "incidence and severity of EAE", "setting": "[1]", "value": "alleviate"}]}, {"molecule": "c1cnc2c(c1)ccc1cccnc12", "note": "[phenanthroline]", "values": [{"measurement": "inhibition of MMP-9 enzymatic activity (size of gelatinase band in zymogram)", "setting": "[2]", "value": "inhibit MMP activity"}]}, {"molecule": "L-glutamic acid polymer with L-alanine, L-lysine and L-tyrosine, acetate (salt) [Copolymer 1]", "values": [{"measurement": "CXCR4 expression on U937 cells", "setting": "[3]", "value": "does not affect"}, {"measurement": "number or size of T lymphocyte aggregates after anti-CD3 treatment (proliferation)", "setting": "[4]", "value": "does not decrease"}, {"measurement": "total number of cells after 72 h", "setting": "[4]; 5 μg/ml", "value": "26±1 ×10^3"}, {"measurement": "total number of cells after 72 h", "setting": "[4]; 25 μg/ml", "value": "26±2 ×10^3"}, {"measurement": "total number of cells after 72 h", "setting": "[4]; 50 μg/ml", "value": "22±1 ×10^3"}, {"measurement": "inhibition of MMP-9 enzymatic activity (size of gelatinase band in zymogram)", "setting": "[2]", "value": "dose-dependently reduced; also recorded: inhibits"}, {"measurement": "production of MMP-9 by T lymphocytes compared to controls", "setting": "[5]", "value": "did not affect"}, {"measurement": "migration rate of pre-treated T lymphocytes versus controls", "setting": "[6]; 10 ng/ml MCP-1 or MCP-3 in bottom chamber as chemotactic signal", "value": "did not differ"}, {"measurement": "migration of T lymphocytes across fibronectin barrier compared to controls", "setting": "[6]; 25 μg/ml pretreatment for 1, 2 or 3 days", "value": "did not inhibit; also recorded: did not affect"}, {"measurement": "transmigration of activated T lymphocytes", "setting": "[6]; 3-day pretreatment, various concentrations 1 to 50 μg/ml", "value": "did not affect"}, {"measurement": "in vitro T-cell responses to MBP", "setting": "[7]", "value": "inhibited"}, {"measurement": "binding to antigen presenting cells / MHC class II molecules", "setting": "[8]", "value": "binds"}, {"measurement": "monocyte production of MMP-9", "setting": "[9]", "value": "unaffected"}, {"measurement": "cytokine production in subsequent T lymphocyte - U937 interactions", "setting": "[10]", "value": "did not influence"}, {"measurement": "reducing effect on cytokine production", "setting": "[11]", "value": "does not occur"}, {"measurement": "experimental GVHD", "setting": "[12]", "value": "prevent"}, {"measurement": "capacity of lymphocytes to transmigrate across a fibronectin barrier", "setting": "[13]", "value": "significantly reduced"}]}, {"molecule": "TIMP-1: positive control shown to inhibit MMP activity in the zymography assay", "values": [{"measurement": "inhibition of MMP-9 enzymatic activity (size of gelatinase band in zymogram)", "setting": "[2]", "value": "inhibit MMP activity"}]}]}
